Data as given in article PMC2745115 (Bioorganic & medicinal chemistry letters, 2008).

Legend:
[1] = humans; cited from earlier work
[2] = rhesus monkeys; cited from earlier work
[3] = Hydrolysis stability of esters by HPLC; assay type: physicochemical; conditions: pH 7.4, 25 mM phosphate buffer, 37 C, after 24 hours
κ opioid receptor = κ opioid receptor (Homo sapiens, UniProt P41145); test: Inhibition of [3H]U69,593 binding to CHO cell membranes; conditions: relative to butorphanol
μ opioid receptor = μ opioid receptor (Homo sapiens, UniProt P35372); test: Inhibition of [3H]DAMGO binding to CHO cell membranes; conditions: relative to 4d
μ opioid receptor, sequence (P35372 whole entry, species assumed): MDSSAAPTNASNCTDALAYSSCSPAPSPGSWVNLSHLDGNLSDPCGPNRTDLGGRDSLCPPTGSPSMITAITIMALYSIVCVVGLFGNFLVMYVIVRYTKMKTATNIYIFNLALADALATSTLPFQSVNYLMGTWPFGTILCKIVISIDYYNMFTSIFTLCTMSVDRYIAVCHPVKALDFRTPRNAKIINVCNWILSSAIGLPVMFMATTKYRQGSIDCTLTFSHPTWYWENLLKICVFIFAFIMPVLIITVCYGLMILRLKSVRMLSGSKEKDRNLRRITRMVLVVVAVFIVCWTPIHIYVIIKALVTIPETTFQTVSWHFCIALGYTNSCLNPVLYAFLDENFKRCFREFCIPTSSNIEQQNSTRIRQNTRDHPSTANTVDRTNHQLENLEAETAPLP

κ opioid receptor, sequence (P41145 whole entry): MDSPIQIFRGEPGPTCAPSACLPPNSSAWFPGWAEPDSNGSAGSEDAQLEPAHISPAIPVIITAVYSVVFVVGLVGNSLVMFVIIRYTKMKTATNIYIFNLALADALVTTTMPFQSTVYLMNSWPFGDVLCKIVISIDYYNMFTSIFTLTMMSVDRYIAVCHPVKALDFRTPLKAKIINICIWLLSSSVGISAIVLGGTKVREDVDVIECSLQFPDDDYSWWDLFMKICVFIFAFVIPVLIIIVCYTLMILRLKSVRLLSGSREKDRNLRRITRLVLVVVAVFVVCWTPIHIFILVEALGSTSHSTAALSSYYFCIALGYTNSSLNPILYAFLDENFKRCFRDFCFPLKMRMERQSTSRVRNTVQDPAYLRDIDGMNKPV

Oc1ccc2c(c1)[C@@]13CCCC[C@@]1(O)[C@@H](C2)N(CC1CCC1)CC3 [3b, butorphanol]
analgesic potency, times that of meperdine [1]: 30 – 40 times
analgesic potency, times that of morphine [1]: 4 – 8 times
analgesic potency, times that of pentazocine [1]: 16 – 24 times
cocaine self-administration [2]: decrease cocaine self-administration
food-maintained responding [2]: without producing a significant change

Cl.O=C(Cc1ccccc1)Oc1ccc2c(c1)[C@@]13CCCC[C@@]1(O)[C@@H](C2)N(CC1CCC1)CC3 [4b]
hydrolysis of the esters [3]: No hydrolysis

Cc1ccc(C(C)C(=O)Oc2ccc3c(c2)[C@@]24CCCC[C@@]2(O)[C@@H](C3)N(CC2CCC2)CC4)cc1.Cl (stereo partly drawn) [4c]
hydrolysis of the esters [3]: No hydrolysis

Cl.O=C(COc1ccccc1)Oc1ccc2c(c1)[C@@]13CCCC[C@@]1(O)[C@@H](C2)N(CC1CCC1)CC3 [4d, (-)-N-cyclobutylmethylmorphinan-3-yl-14-ol phenoxyacetate]
more potent binder at the κ receptor than butorphanol (κ opioid receptor): four-fold

Cl.O[C@@]12CCCC[C@@]13CCN(CC1CCC1)[C@@H]2Cc1ccc(OCCc2ccccc2)cc13 [5d]
less binding affinity at the μ opioid receptor than 4d (μ opioid receptor): 164 fold
